In test [1] the target is T1, human recombinant GST cleaved CSNK1D (Homo sapiens, UniProt P48730).
T1 construct: GST (cleaved yes); purchased University of Dundee clone DU 19064
Description: Purified Enzyme Assay (ADP-Glo CSNK1D Kinase Assay). Type of test: biochemical. The following applies: 2 nM CSNK1D; peptide substrate 150 μM; ATP 20 μM; 45 minutes at room temperature. Put shortly:
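GST-cleaved human recombinant CSNK1D phosphorylates peptide PLSRTL-pS-VASLPGL with ATP; compounds added in dose-response, 45 min at room temperature. ADP formed measured by ADP-Glo luminescence and converted to percent activity.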

The next test has as its target T2, human CSNK1D (Homo sapiens, UniProt P48730).
T2 construct: expressed in transfected cells
Description: Whole Cell nBRET CSNK1D Binding Assay. The following applies: living CHO cells stably expressing human CSNK1D tagged with nanoluciferase; NanoBret tracer 130 nM; 2 hours at 37 C.

Broadly, the IC50 is the point on the concentration scale where inhibition reaches its midpoint.

SMILES strings stand for the structures.

T2 sequence (P48730 whole entry): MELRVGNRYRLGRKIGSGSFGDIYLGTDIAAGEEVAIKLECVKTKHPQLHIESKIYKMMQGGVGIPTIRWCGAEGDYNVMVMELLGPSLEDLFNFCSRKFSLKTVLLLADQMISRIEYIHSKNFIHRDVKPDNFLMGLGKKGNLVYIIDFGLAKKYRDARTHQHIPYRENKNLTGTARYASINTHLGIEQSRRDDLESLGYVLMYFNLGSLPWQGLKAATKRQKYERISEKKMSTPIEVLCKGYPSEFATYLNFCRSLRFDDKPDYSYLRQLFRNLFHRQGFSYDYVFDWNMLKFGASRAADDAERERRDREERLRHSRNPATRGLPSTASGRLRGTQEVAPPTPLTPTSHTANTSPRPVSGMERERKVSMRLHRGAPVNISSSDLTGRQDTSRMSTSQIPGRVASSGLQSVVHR
T1 sequence (P48730 whole entry): as above

Regarding `[2H]C([2H])([2H])C1(C([2H])([2H])[2H])Cn2nc(-c3ccc(F)cn3)c(-c3cc(C)nc4[nH]nc(Cl)c34)c2CO1` [Example 405, 3-(3-Chloro-6-methyl-1H-pyrazolo[3,4-b]pyridin-4-yl)-2-(5-fluoropyridin-2-yl)-6,6-bis(methyl-d3)-6,7-dihydro-4H-pyrazolo[5,1-c][1,4]oxazine], the IC50 in test [1] was determined as 5 nM; on human CSNK1D, 14 nM.

With `[2H]C([2H])([2H])C1(C([2H])([2H])[2H])Cn2nc(-c3ccc(F)cn3)c(-c3c(F)c(C)nc4[nH]ncc34)c2CO1` [Example 406, 3-(5-Fluoro-6-methyl-1H-pyrazolo[3,4-b]pyridin-4-yl)-2-(5-fluoropyridin-2-yl)-6,6-bis(methyl-d3)-6,7-dihydro-4H-pyrazolo[5,1-c][1,4]oxazine], the IC50 in test [1] came out at 3 nM; at human CSNK1D, 23 nM.

Take `[2H]C([2H])([2H])C1(C([2H])([2H])[2H])Cn2nc(-c3ccc(F)cn3)c(-c3c(Cl)c(C)nc4[nH]ncc34)c2CO1` [Example 407, 3-(5-Chloro-6-methyl-1H-pyrazolo[3,4-b]pyridin-4-yl)-2-(5-fluoropyridin-2-yl)-6,6-bis(methyl-d3)-6,7-dihydro-4H-pyrazolo[5,1-c][1,4]oxazine]: the IC50 in test [1] worked out at 25 nM; on human CSNK1D it was 219 nM.

As to `[2H]C([2H])([2H])C1(C([2H])([2H])[2H])Cn2nc(-c3ccc(F)cn3)c(-c3c(F)c(C)nc4[nH]nc(Cl)c34)c2CO1` [Example 408, 3-(3-Chloro-5-fluoro-6-methyl-1H-pyrazolo[3,4-b]pyridin-4-yl)-2-(5-fluoropyridin-2-yl)-6,6-bis(methyl-d3)-6,7-dihydro-4H-pyrazolo[5,1-c][1,4]oxazine], the values for the IC50 (in test [1]; at human CSNK1D) were 6 nM and 26 nM, respectively.

For the compound `[2H]C([2H])([2H])C1(C([2H])([2H])[2H])Cn2nc(-c3ccc(F)cn3)c(-c3c(F)c(C)nc4[nH]nc(C)c34)c2CO1` [Example 409, 3-(5-Fluoro-3,6-dimethyl-1H-pyrazolo[3,4-b]pyridin-4-yl)-2-(5-fluoropyridin-2-yl)-6,6-bis(methyl-d3)-6,7-dihydro-4H-pyrazolo[5,1-c][1,4]oxazine], the IC50 came out at 12 nM in test [1] and 69 nM at human CSNK1D.

On to `[2H]C([2H])([2H])C1(C([2H])([2H])[2H])Cn2nc(-c3ccc(F)cc3)c(-c3nc(C)nc4[nH]ncc34)c2CO1` [Example 410, 2-(4-Fluorophenyl)-6,6-bis(methyl-d3)-3-(6-methyl-1H-pyrazolo[3,4-d]pyrimidin-4-yl)-6,7-dihydro-4H-pyrazolo[5,1-c][1,4]oxazine], for which the values for the IC50 (in test [1]; at human CSNK1D) were 2 nM and 17 nM, respectively.

Turning to `Cc1nc(-c2c(-c3ccc(F)cc3)nn3c2COC(C)(C(F)(F)F)C3)c2cn[nH]c2n1` (stereo not drawn) [Example 422, 2-(4-Fluorophenyl)-6-methyl-3-(6-methyl-1H-pyrazolo[3,4-d]pyrimidin-4-yl)-6-(trifluoromethyl)-6,7-dihydro-4H-pyrazolo[5,1-c][1,4]oxazine], the IC50 was 3 nM in test [1] and 20 nM on human CSNK1D.

With `Fc1ccc(-c2nn3c(c2-c2ccnc4[nH]ncc24)COC2(CC2)C3)nc1` [Example 432, 2-(5-Fluoro-2-pyridyl)-3-(1H-pyrazolo[3,4-b]pyridin-4-yl)spiro[4,7-dihydropyrazolo[5,1-c][1,4]oxazine-6,1′-cyclopropane]], the IC50 in test [1] amounted to 8 nM; at human CSNK1D it was 195 nM.

With `Fc1ccc(-c2nn3c(c2-c2ccncc2)OCCC3)cc1` [Example 438, 2-(4-Fluorophenyl)-3-(4-pyridyl)-6,7-dihydro-5H-pyrazolo[5,1-b][1,3]oxazine], the IC50 came out at 12 nM in test [1] and 113 nM at human CSNK1D.

For the compound `CCC(=O)Nc1cc(-c2c(-c3ccc(F)cn3)nn3c2OCCC3)ccn1` [Example 439, N-(4-(2-(5-Fluoropyridin-2-yl)-6,7-dihydro-5H-pyrazolo[5,1-b][1,3]oxazin-3-yl)pyridin-2-yl)propionamide], the IC50 in test [1] came out at 6 nM; at human CSNK1D, 75 nM.

In the case of `Fc1ccc(-c2nn3c(c2-c2ccn4nccc4c2)OCCC3)nc1` [Example 440, 2-(5-Fluoropyridin-2-yl)-3-(pyrazolo[1,5-a]pyridin-5-yl)-6,7-dihydro-5H-pyrazolo[5,1-b][1,3]oxazine], the 50% inhibitory concentration (IC50) in test [1] was found to be 44 nM; on human CSNK1D, 516 nM.

As for `CCn1ncc2cc(-c3c(-c4ccc(F)cn4)nn4c3OCCC4)cnc21` [Example 441, 3-(1-Ethyl-1H-pyrazolo[3,4-b]pyridin-5-yl)-2-(5-fluoropyridin-2-yl)-6,7-dihydro-5H-pyrazolo[5,1-b][1,3]oxazine], the IC50 was determined as 44 nM in test [1] and 1870 nM at human CSNK1D.

For the compound `CCC(=O)Nc1cc(-c2c(-c3ccc(F)cn3)nn3c2OCC(C)C3)ccn1` (stereo not drawn) [Example 442, N-(4-(2-(5-Fluoropyridin-2-yl)-6-methyl-6,7-dihydro-5H-pyrazolo[5,1-b][1,3]oxazin-3-yl)pyridin-2-yl)propionamide], the IC50 was found to be 3 nM in test [1] and 23 nM at human CSNK1D.

Turning to `CC1COc2c(-c3ccn4nccc4c3)c(-c3ccc(F)cn3)nn2C1` (stereo not drawn) [Example 443, 2-(5-Fluoropyridin-2-yl)-6-methyl-3-(pyrazolo[1,5-a]pyridin-5-yl)-6,7-dihydro-5H-pyrazolo[5,1-b][1,3]oxazine], the IC50 in test [1] was 30 nM; at human CSNK1D, 581 nM.

In the case of `CCn1ncc2cc(-c3c(-c4ccc(F)cn4)nn4c3OCC(C)C4)cnc21` (stereo not drawn) [Example 444, 3-(1-Ethyl-1H-pyrazolo[3,4-b]pyridin-5-yl)-2-(5-fluoropyridin-2-yl)-6-methyl-6,7-dihydro-5H-pyrazolo[5,1-b][1,3]oxazine], the IC50 in test [1] is 67 nM; at human CSNK1D, 1590 nM.

For the compound `CCC(=O)Nc1cc(-c2c(-c3ccc(F)cn3)nn3c2OCCC3C)ccn1` (stereo not drawn) [Example 445, N-(4-(2-(5-Fluoropyridin-2-yl)-7-methyl-6,7-dihydro-5H-pyrazolo[5,1-b][1,3]oxazin-3-yl)pyridin-2-yl)propionamide], the IC50 in test [1] was 10 nM; on human CSNK1D, 210 nM.

In the case of `CC1CCOc2c(-c3ccn4nccc4c3)c(-c3ccc(F)cn3)nn21` (stereo not drawn) [Example 446, 2-(5-Fluoropyridin-2-yl)-7-methyl-3-(pyrazolo[1,5-a]pyridin-5-yl)-6,7-dihydro-5H-pyrazolo[5,1-b][1,3]oxazine], the results for the IC50 (in test [1]; on human CSNK1D) were 184 nM and 4340 nM, respectively.

As to `CCC(=O)Nc1cc(-c2c(-c3ccc(F)cn3)nn3c2OCC(C)(C)C3)ccn1` [Example 447, N-(4-(2-(5-Fluoropyridin-2-yl)-6,6-dimethyl-6,7-dihydro-5H-pyrazolo[5,1-b][1,3]oxazin-3-yl)pyridin-2-yl)propionamide], the figures for the IC50 (in test [1]; at human CSNK1D) were 2 nM and 5 nM, respectively.

With `CC1(C)COc2c(-c3ccnc4cc[nH]c34)c(-c3ccc(F)cc3)nn2C1` [Example 448, 2-(4-Fluorophenyl)-6,6-dimethyl-3-(1H-pyrrolo[3,2-b]pyridin-7-yl)-5,7-dihydropyrazolo[5,1-b][1,3]oxazine], the IC50 in test [1] came out at 28 nM; on human CSNK1D it was 196 nM.

In the case of `CC1(C)COc2c(-c3ccn4nccc4c3)c(-c3ccc(F)cn3)nn2C1` [Example 449, 2-(5-Fluoropyridin-2-yl)-6,6-dimethyl-3-(pyrazolo[1,5-a]pyridin-5-yl)-6,7-dihydro-5H-pyrazolo[5,1-b][1,3]oxazine], the IC50 in test [1] was 8 nM; on human CSNK1D, 70 nM.

`CC1(C)COc2c(-c3ccnc4cc[nH]c34)c(-c3ccc(F)cn3)nn2C1` [Example 450, 2-(5-Fluoro-2-pyridyl)-6,6-dimethyl-3-(1H-pyrrolo[3,2-b]pyridin-7-yl)-5,7-dihydropyrazolo[5,1-b][1,3]oxazine]: the IC50 in test [1] is 75 nM; on human CSNK1D, 1050 nM.

Consider `Cc1cn2nccc2cc1-c1c(-c2ccc(F)cn2)nn2c1OCC(C)(C)C2` [Example 451, 2-(5-Fluoro-2-pyridyl)-6,6-dimethyl-3-(6-methylpyrazolo[1,5-a]pyridin-5-yl)-5,7-dihydropyrazolo[5,1-b][1,3]oxazine], for which the values for the IC50 (in test [1]; at human CSNK1D) were 132 nM and 5760 nM, respectively.

On to `CCn1ncc2cc(-c3c(-c4ccc(F)cn4)nn4c3OCC(C)(C)C4)cnc21` [Example 452, 3-(1-Ethyl-1H-pyrazolo[3,4-b]pyridin-5-yl)-2-(5-fluoropyridin-2-yl)-6,6-dimethyl-6,7-dihydro-5H-pyrazolo[5,1-b][1,3]oxazine], for which the IC50 came to 44 nM in test [1] and 570 nM on human CSNK1D.

Regarding `CC1(C)COc2c(-c3ccnc4cn[nH]c34)c(-c3ccc(F)cc3)nn2C1` [Example 453, 2-(4-Fluorophenyl)-6,6-dimethyl-3-(1H-pyrazolo[4,3-b]pyridin-7-yl)-5,7-dihydropyrazolo[5,1-b][1,3]oxazine], the IC50 in test [1] was found to be 2 nM; at human CSNK1D, 11 nM.

Take `CC1(C)COc2c(-c3ccnc4cn[nH]c34)c(-c3ccc(F)cn3)nn2C1` [Example 454, 2-(5-Fluoro-2-pyridyl)-6,6-dimethyl-3-(1H-pyrazolo[4,3-b]pyridin-7-yl)-5,7-dihydropyrazolo[5,1-b][1,3]oxazine]: the IC50 in test [1] was found to be 6 nM; at human CSNK1D, 127 nM.

As to `CCC(=O)Nc1cc(-c2c(-c3ccc(F)cc3)nn3c2OCC2(CC2)C3)ccn1` [Example 455, N-(4-(2′-(4-Fluorophenyl)-5′H,7′H-spiro[cyclopropane-1,6′-pyrazolo[5,1-b][1,3]oxazin]-3′-yl)pyridin-2-yl)propionamide], the IC50 (in test [1]; on human CSNK1D) was 1 nM throughout.

In the case of `O=C(Nc1cc(-c2c(-c3ccc(F)cn3)nn3c2OCC2(CC2)C3)ccn1)C1CC1` [Example 456, N-(4-(2′-(5-Fluoropyridin-2-yl)-5′H,7′H-spiro[cyclopropane-1,6′-pyrazolo[5,1-b][1,3]oxazin]-3′-yl)pyridin-2-yl)cyclopropanecarboxamide], the IC50 stood at 1 nM in test [1] and 7 nM on human CSNK1D.

(Values after US20230339970A1, “CASEIN KINASE 1 DELTA MODULATORS” (priority 2020, published 2023).)
